Test results from patent publication US5559232A, “Carboxamides” (Hoffmann-La Roche Inc., priority 1993, dated 1996).

What was measured:
human thrombin = human thrombin (Homo sapiens, UniProt P00734); experiment: inhibition of the amidolytic activity of thrombin (chromogenic substrate S-2238); format: biochemical; conditions: for Ki: human thrombin 0.5 nM, substrate S-2238, pH 7.8, room temperature; for q (ratio of the inhibition of trypsin to the inhibition of thrombin): specificity: Ki trypsin / Ki thrombin
Method: A differential inhibition of thrombin and other serine proteases by the above compounds is desirable in order to obtain compounds having as high a specificity as possible and at the same time to avoid possible side-effects.
Specific chromogenic peptide substrates can be used to determine the inhibition of the catalytic activity of the above proteases. The inhibition of the amidolytic activity of thrombin and trypsin by the above guanidines was determined as described hereinafter.
The measurements were carried out on microtitre plates at room temperature. For this, in each well of the plate 150 μl of buffer (50 mM Tris, 100 mM NaCl, 0.1% polyethylene glycol; pH 7.8) were mixed with 50 μl of the inhibitor dissolved in DMSO and diluted in the buffer, and 25 μl of human thrombin (0.5 nM final conc.) were added. After incubation for 10 minutes the reaction was started by the addition of chromogenic substrate S-2238 (H-D-Phe-Pip-Arg-paranitroaniline from Kabivitrum; 10 or 50 μm final conc.) and the hydrolysis of the substrate was followed spectrophotometrically on a kinetic microtiter plate reader for 5 minutes. After graphical presentation of the inhibition curves the Ki values were determined according to the method described in Blochem. J. 55, 1955, 170-171.

trypsin = experiment: inhibition of the amidolytic activity of trypsin (chromogenic substrate S-2251); format: biochemical; conditions: substrate S-2251, 200 and 750 μM, otherwise analogous to thrombin

Ki (human thrombin) | q (ratio of the inhibition of trypsin to the inhibition of thrombin) (human thrombin) | Ki (trypsin) | SMILES
0.61 µM | 92 | 56 µM | CCCCN(CC(=O)OCC)C(=O)[C@H](CC(=O)NC[C@@H]1CCCN(C(=N)N)C1)NC(=O)OCc1ccccc1 [Example 2b, ethyl [[(S)-3-[(S)-1-(amino-imino-methyl)-piperidin-3-ylmethylcarbamoyl]-2-benzyloxycarbonylamino-propionyl]-butyl-amino]acetate]
1.3 µM | 74 | 96 µM | CCCCS(=O)(=O)N1CCN(CC(=O)O)C(=O)C1CC(=O)NC[C@@H]1CCCN(C(=N)N)C1 (stereo partly drawn) [Example 17, [3-[(S)-1-(amino-imino-methyl)-piperidin-3-ylmethylcarbamoylmethyl]-4-butylsulphonyl-2-oxo-piperazin-1yl]acetic acid]
